According to ChEMBL document CHEMBL1201862, “PubChem BioAssay data set” (2004):
The source made the active and inactive calls.

Legend:
Format in all cases: functional
SN12K1 = experiment: cells; conditions: Homo sapiens
P388 = experiment: cells; conditions: Mus musculus
P388/ADR = experiment: cells; conditions: Mus musculus
[1] = target: T1, Ubiquitin-conjugating enzyme E2 N (Homo sapiens, UniProt P61088);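 note: Dose-response confirmation in a TR-FRET assay detecting UBC13-driven polyubiquitin chain formation, inhibition measured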
T1 sequence (P61088 whole entry): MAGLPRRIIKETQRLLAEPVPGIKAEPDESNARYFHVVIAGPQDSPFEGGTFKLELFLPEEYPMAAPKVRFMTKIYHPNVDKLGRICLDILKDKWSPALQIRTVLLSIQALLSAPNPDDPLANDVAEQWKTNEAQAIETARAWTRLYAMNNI

[2] = target: T2, Heat shock factor protein 1 (Mus musculus, UniProt P38532); experiment: enhancement of HSF1-driven luciferase signal – cell-based, NIH3T3, luminescence, dose retest, confirmation (AID 435004);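 note: stress induced by proteasome inhibitor MG132 added 30 min after compound; luciferase reporter driven by HSF1 response element in NIH3T3 cells; actives raise luminescence as potentiators of the MG132 stress response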
T2 sequence (P38532 whole entry): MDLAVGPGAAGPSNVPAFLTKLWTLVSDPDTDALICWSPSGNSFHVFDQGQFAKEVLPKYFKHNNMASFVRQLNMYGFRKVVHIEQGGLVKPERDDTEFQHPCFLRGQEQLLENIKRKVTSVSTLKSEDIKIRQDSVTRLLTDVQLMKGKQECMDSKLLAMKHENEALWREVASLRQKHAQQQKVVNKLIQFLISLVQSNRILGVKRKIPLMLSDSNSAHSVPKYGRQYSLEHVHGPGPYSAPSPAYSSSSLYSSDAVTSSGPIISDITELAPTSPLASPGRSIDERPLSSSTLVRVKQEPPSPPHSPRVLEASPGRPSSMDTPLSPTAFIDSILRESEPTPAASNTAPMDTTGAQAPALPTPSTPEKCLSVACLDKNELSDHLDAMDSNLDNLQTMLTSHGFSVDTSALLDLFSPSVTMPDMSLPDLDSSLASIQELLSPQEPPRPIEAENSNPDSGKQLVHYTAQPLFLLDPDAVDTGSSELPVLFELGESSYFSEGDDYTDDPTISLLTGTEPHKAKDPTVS

[3] = intracellular Trypanosoma cruzi inhibitors in host cells – cell-based, plate reader, cherry-pick samples, set 3, dose response (AID 651818);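 note: compounds incubated with infected cells for about four days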
[4] = target: Induced myeloid leukemia cell differentiation protein Mcl-1 (Homo sapiens, UniProt Q07820)
[5] = target: T3, Carboxy-terminal domain RNA polymerase II polypeptide A small phosphatase 1 (Homo sapiens, UniProt Q9GZU7); experiment: CTDSP1 inhibitors, concentration-response, biochemical, absorbance readout, ultra-high-throughput screen actives (AID 540297)
T3 sequence (Q9GZU7 whole entry): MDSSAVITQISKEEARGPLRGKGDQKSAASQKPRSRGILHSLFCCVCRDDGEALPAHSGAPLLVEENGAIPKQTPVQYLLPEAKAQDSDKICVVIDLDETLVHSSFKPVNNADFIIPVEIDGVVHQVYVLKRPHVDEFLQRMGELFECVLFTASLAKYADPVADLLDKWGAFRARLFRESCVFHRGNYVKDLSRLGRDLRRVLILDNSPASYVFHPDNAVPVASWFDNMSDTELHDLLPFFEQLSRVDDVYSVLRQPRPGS

Chain of Induced myeloid leukemia cell differentiation protein Mcl-1 (Q07820 whole entry, the tested form may be a part): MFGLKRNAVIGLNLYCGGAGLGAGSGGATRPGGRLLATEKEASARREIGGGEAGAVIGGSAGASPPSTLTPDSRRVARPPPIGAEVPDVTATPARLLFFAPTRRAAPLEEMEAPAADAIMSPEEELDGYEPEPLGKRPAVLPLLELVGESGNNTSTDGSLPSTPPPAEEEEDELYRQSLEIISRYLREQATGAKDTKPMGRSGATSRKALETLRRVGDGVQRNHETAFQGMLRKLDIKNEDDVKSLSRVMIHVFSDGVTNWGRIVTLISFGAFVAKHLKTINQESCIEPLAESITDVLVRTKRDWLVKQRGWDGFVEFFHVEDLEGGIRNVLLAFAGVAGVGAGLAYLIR

| Structure (SMILES) | GI50 (SN12K1) | GI50 (P388) | GI50 (P388/ADR) | other results |
| --- | --- | --- | --- | --- |
| CC(=O)[C@H]1CCC2[C@@H]3CC=C4C(O)C(OS(=O)(=O)O)CC[C@]4(C)C3CC[C@@]21C (some centres not stated) | > 100 µM (inactive) | > 100 µM (inactive) | > 100 µM (inactive) |  |
| COc1ccc(NC(=O)CSc2nc3c(sc4ccccc43)c(=O)n2CCCN2CCCC2)cc1 |  |  |  | IC50 [1]: > 20 µM (inactive) |
| COc1ccc(N(C(=O)c2snc(C(N)=O)c2N)C(C(=O)NC2CCCCC2)c2ccc(C)o2)cc1 (configuration not stated) |  |  |  | IC50 [1]: > 20 µM (inactive) |
| NC(Cc1c[nH]c2ccccc12)C(=O)O (stereo not drawn) [DL-TRYPTOPHAN] | > 300 µM (inactive) | 269 µM (inactive) | > 300 µM (inactive) |  |
| CCc1ccccc1N1CCN(C(=O)c2cc(OC)c(OC)c(OC)c2)CC1 | 0.0614 µM (active) | 0.0395 µM (active) | 0.119 µM (active) |  |
| O=C(C1CCC(CNS(=O)(=O)c2cccc3nsnc23)CC1)N1CCN(c2ccccn2)CC1 (configuration not stated) |  |  |  | EC50 [2]: > 260 µM (inactive) |
| C[C@@H]1CCCCO[C@@H](CN(C)S(=O)(=O)c2cccs2)[C@@H](C)CN([C@H](C)CO)C(=O)c2cc(NC(=O)Nc3ccc(C(F)(F)F)cc3)ccc2O1 |  |  |  | AC50 [3]: 4.19 µM (active) |
| COc1ccc(/C=N/NC(=O)c2ccc(O)cc2O)cc1CSc1ccccn1 |  |  |  | IC50 [4]: 3.42 µM (active); IC50 [5]: 5.92 µM (active) |
| Nc1n[nH]c(N)n1 [GUANAZOLE] | 2830 µM (inactive) | 728 µM (inactive) | 1060 µM (inactive) |  |
| O=S1(=O)c2cccc3cccc(c23)N1Cc1nnc(-c2ccccc2Br)o1 |  |  |  | EC50 [2]: 34.6 µM (active) |
| CC1[C@@H]2CC=C3C4CCC5Cc6nc7c(nc6C[C@@]5(C)C4CC(=O)[C@]32CO[C@@]1(O)C(O)CC(C)(C)O)CC1CCC2C3=C[C@H]4O[C@@]5(O[C@@](C)(CO)C[C@@H]5O)C(C)[C@@]4(O)[C@]3(C)[C@@H](O)CC2[C@]1(C)C7 (some centres not stated) | < 0.00036 µM (active) | < 0.00036 µM (active) | 0.0105 µM (active) |  |
